The structures appear in SMILES notation.

Series [1] is described as follows: Viability (LC50) of MT4 cells. The following applies: human, read-out: LC50 (concentration of compound at which 50% of the cells remain viable). The series is classed as cell-based. An excerpt:
(§1) The anti-HIV activity of the compounds of the invention can be determined in MT4 cells according to the procedure of Kempf, et. al. (Antimicrob. Agents Chemother. 1991, 35, 2209). The IC50 is the concentration of compound that gives 50% inhibition of the cytopathic effect of HIV. The LC50 is the concentration of compound at which 50% of the cells remain viable.

The target in another series is T1, HIV-1 protease (HIV-1 M:B_HXB2R, UniProt P04585).
T1 construct: fluorogenic DABCYL/EDANS peptide substrate
In words: Fluorogenic Assay for Screening Inhibitors of HIV Protease. It counts as biochemical. As to conditions: inhibitor concentration 0.5 nanomolar; pH 4.5; 30° C.; 1.3 μM fluorogenic substrate; read-out: Percent Inhibition. The protocol:
The inhibitory potency of the compounds of the invention can be determined by the following method.
A compound of the invention is dissolved in DMSO and a small aliquot further diluted with DMSO to 100 times the final concentration desired for testing. The reaction is carried out in a 6×50 mm tube in a total volume of 300 microliters. The final concentrations of the components in the reaction buffer are: 125 mM sodium acetate, 1 M sodium chloride, 5 mM dithiothreitol, 0.5 mg/ml bovine serum albumin, 1.3 μM fluorogenic substrate, 2% (v/v) dimethylsulfoxide, pH 4.5. After addition of inhibitor, the reaction mixture is placed in the fluorometer cell holder and incubated at 30° C. for several minutes. The reaction is initiated by the addition of a small aliquot of cold HIV protease. The fluorescence intensity (excitation 340 nm, emmision 490 nM) is recorded as a function of time. The reaction rate is determined for the first six to eight minutes. The observed rate is directly proportional to the moles of substrate cleaved per unit time. The percent inhibition is 100 X (1 -(rate in presence of inhibitor)/(rate in absence of inhibitor)).
Fluorogenic substrate: DabcyI-Ser-GIn-Asn-Tyr-Pro-Ile-VaI-GIn-EDANS wherein DABCYL=4-(4-dimethylamino-phenyl)azobenzoic acid and EDANS=5-((2-aminoethyl)amino)-naphthalene-1-sulfonic acid.

The next series deals with HIV-13B. In words: Antiviral activity: inhibition of the cytopathic effect of HIV in MT4 cells. As to conditions: Human immunodeficiency virus 1; HIV-13B in MT4 cells; read-out: IC50 (concentration of compound that gives 50% inhibition of the cytopathic effect of HIV). It counts as cell-based.
From the text: as §1

Turning to `CC(C)(C)NC(=O)[C@@H]1CN(Cc2cncs2)CCN1C[C@@H](O)C[C@@H](Cc1ccccc1)C(=O)N[C@H]1c2ccccc2C[C@H]1O` [Example 1R, (1S,2R,2'R,4'S,2"S)-1-((2-Benzyl-5-(((2-(t-butyl)amino)carbonyl)-4-((thiazol-5-yl)methyl)piperazin-1-yl)-4-hydroxypentanoyl)amino)indan-2-ol], the CC50 in series [1] was over 100000 nM. Moreover, the inhibition at 0.0005 µM at HIV-1 protease came to 61%. In addition, in the series with HIV-13B, the IC50 worked out at 16 nM.
